Among the data in paper PMC10489073 (Molecules, 2023) are IC50, anti-tumor activity and anti-proliferation activity values, retold here.

The IC50 is the point on the concentration scale where inhibition reaches its midpoint.

Each structure is given as a SMILES string.

Assay [1] deals with T1, chymotrypsin-like (CT-L) activity of the 20S proteasome (Homo sapiens, UniProt P20618+P28074).
T1 construct: purchased R&D systems, Minneapolis, MN, USA
As to the kind of experiment: 20S proteasome inhibition assay (Proteasome-Glo Chymotrypsin-Like). Format: biochemical. The following applies: n ≥ 3, SD <20% of the mean, read-out: IC50 toward Chymotrypsin-like (CT-L). On the procedure: The 20S proteasome inhibition assay was performed using the Proteasome-Glo™ Chymotrypsin-Like Assay kit (Promega, Alexandria, NSW, Australia). Suc-LLVY-aminoluciferin is a substate that can be cleaved by the 20S proteasome, release the […] (aminoluciferin) and allow the luciferase reaction to produce light. Gradient concentration of tested compounds and the purified 20S proteasome enzyme (R&D systems, Minneapolis, MN, USA) were successively added into a transparent 96-well plate and mixed thoroughly. Then, 50 µL of a […] reagent was added. Gently mix contents with a plate shaker at 300 to 500 rpm for 30 s. Incubate at room temperature for an hour. The luminescence was recorded via the Tecan Spark multimode microplate.

The subject of another assay is P3x63Ag8.653. As to the kind of experiment: Cell proliferation analysis (MTT). The following applies: Mus musculus, 48 h, read-out: Anti-proliferative activity IC50, P3x63Ag8.653. It is filed as cell-based, murine. The method, then:
(§1) All tumor cell lines in the current research were grown in a certain growth medium containing 10% FBS and 1% (v/v/v) penicillin–streptomycin–amphotericin at 37 °C in 5% CO2. Cells were seeded into 96-well plates at a density of 8 × 10^3 cells per well for tumor adherent cells and 2 × 10^4 cells per well for tumor-suspended cells in a final volume of 100 μL. After 12 h, 100 μL of various concentrations of compounds was added to each and incubated for 48 h. A 0.5% MTT solution was added per well before the intermixture was incubated for another 4 h, and formazan formed from MTT was extracted by adding […] of DMSO rocking for 15 min. Absorbance was measured at 570 nm using a Spark multimode microplate from Tecan. The IC50 values were calculated according to the inhibition ratios.

The next assay deals with A2780. As to the kind of experiment: Cell proliferation analysis (MTT). Format: cell-based. The following applies: Homo sapiens, 48 h, read-out: Anti-proliferative activity IC50, A2780. On the procedure:
as §1

For the next assay, the system named is ARP-1. As to the kind of experiment: Cell proliferation analysis (MTT). The following applies: 48 h, read-out: Anti-proliferative activity IC50, ARP-1. Format: cell-based. On the procedure: as §1
Another assay concerns HCT116. As to the kind of experiment: Cell proliferation analysis (MTT). It is filed as cell-based. The following applies: Homo sapiens, HCT-116, 48 h, read-out: Anti-proliferative activity IC50, HCT116. The method, then:
as §1

A further assay relates to HEL. As to the kind of experiment: Cell proliferation analysis (MTT). Format: cell-based. The following applies: Homo sapiens, 48 h, read-out: Anti-proliferative activity IC50, HEL. On the procedure: as §1
Another assay concerns HT-29. As to the kind of experiment: Cell proliferation analysis (MTT). Format: cell-based. The following applies: Homo sapiens, 48 h, read-out: Anti-proliferative activity IC50, HT-29. The method, then:
as §1

For the next assay, the system named is Hela. As to the kind of experiment: Cell proliferation analysis (MTT). Format: cell-based. The following applies: Homo sapiens, 48 h, read-out: Anti-proliferative activity IC50, Hela. The method, then: as §1
In a further assay the test system is KG1. As to the kind of experiment: Cell proliferation analysis (MTT). Format: cell-based. The following applies: Homo sapiens, KG-1, 48 h, read-out: Anti-proliferative activity IC50, KG1. On the procedure:
as §1

For another assay, the system named is MDA-MB-231. As to the kind of experiment: Cell proliferation analysis (MTT). Format: cell-based. The following applies: Homo sapiens, 48 h, read-out: Anti-proliferative activity IC50, MDA-MB-231. The method, then:
as §1

The test system of a further assay is MM.1S. As to the kind of experiment: Cell proliferation analysis (MTT). It is filed as cell-based. The following applies: Homo sapiens, MM1.S, 48 h, read-out: Anti-proliferative activity IC50, MM.1S. The method, then:
as §1

For a further assay, the system named is PC3. As to the kind of experiment: Cell proliferation analysis (MTT). Format: cell-based. The following applies: Homo sapiens, PC-3, 48 h, read-out: Anti-proliferative activity IC50, PC3. The method, then:
as §1

In another assay the test system is RPMI-8266. As to the kind of experiment: Cell proliferation analysis (MTT). It is filed as cell-based. The following applies: RPMI8266, 48 h, read-out: Anti-proliferative activity IC50, RPMI-8266. On the procedure:
as §1

In the next assay the test system is SP2. As to the kind of experiment: Cell proliferation analysis (MTT). Format: cell-based. The following applies: 48 h, read-out: Anti-proliferative activity IC50, SP2. The method, then: as §1
A further assay deals with U251. As to the kind of experiment: Cell proliferation analysis (MTT). Format: cell-based. The following applies: Homo sapiens, U-251, 48 h, read-out: Anti-proliferative activity IC50, U251. On the procedure:
as §1

A further assay has as its system U266. As to the kind of experiment: Cell proliferation analysis (MTT). Format: cell-based. The following applies: Homo sapiens, U-266, 48 h, read-out: Anti-proliferative activity IC50, U266. On the procedure:
as §1

A further assay concerns HEK293. As to the kind of experiment: Cell proliferation analysis (MTT), normal cells. Format: cell-based. The following applies: Homo sapiens, non-malignant cell line, 48 h, read-out: Anti-proliferative activity IC50, HEK293. The method, then: as §1
The next assay has as its system HL-7702. As to the kind of experiment: Cell proliferation analysis (MTT), normal cells. It is filed as cell-based. The following applies: Homo sapiens, L02, non-malignant cell line, 48 h, read-out: Anti-proliferative activity IC50, HL-7702. The method, then: as §1
Assay [2] concerns subcutaneous P3x63Ag8.653 tumor. As to the kind of experiment: In vivo P3x63Ag8.653 tumor transplant model. Further details: species or system mice. The following applies: 0.05 mmol/kg oral, two weeks. On the procedure: The animal experiments were conducted under the guidelines of the “Regulations for the Administration of Affairs Concerning Experimental Animals” (revised 2017, State Council No. 676). For the P3x63Ag8.653 tumor development, male mice were subcutaneously injected with 200 μL murine P3x63Ag8.653 cells with a density of 1 × 10^7/mL. On the eighth day after injection, the transplanted mice were randomized into treatment and control groups. The tested compounds were administrated orally at the prescribed dose biweekly for two weeks. After two weeks of administration, mice were executed, and the tumor tissues were dissected and weighed. T/C was calculated according to the following formula: T/C = the mean RTV of the treated group/the mean RTV of the control group, where RTV is the relative tumor volume = Vt/V0 (Vt, the tumor volume measured at the end of treatment; V0, the tumor volume measured at the beginning of treatment).

The conditions of assay [3]: high concentrations up to 1 mM; cited from earlier work.

For the molecule `CC(C)C[C@H](NC(=O)[C@@H](O)[C@H](N)Cc1ccccc1)C(=O)O` [Ubenimex], the IC50 in assay [1] was above 10 µM; in the assay on P3x63Ag8.653 it was above 200 µM; in the assay on A2780, above 200 µM; with ARP-1, above 200 µM; in the assay with HCT116, above 200 µM; in the assay on HEL, above 200 µM. The IC50 in the assay with HT-29, in the assay on Hela, with KG1, in the assay on MDA-MB-231, in the assay with MM.1S and in the assay with PC3 was above 200 µM in each case. Also, the half-inhibitory concentration (IC50) with RPMI-8266, in the assay on SP2, with U251, in the assay with U266, with HEK293 and with HL-7702 was above 200 µM in each case. In addition, the anti-tumor activity result in assay [2] is recorded as “moderate anti-tumor activity”. Moreover, the anti-proliferation activity result in assay [3] is on record as “not apparent”.
